These are literature values, as cited in patent publication US20100285114A1, “PHARMACEUTICAL COMPOSITIONS OF RHEIN OR DIACEREIN” (priority 2007, published 2010).

Each structure is given as a SMILES string. Where a name gives a salt, the structure may show the parent alone.

The conditions of series [1]: in vivo.

As for `CC(=O)Oc1cccc2c1C(=O)c1c(OC(C)=O)cc(C(=O)O)cc1C2=O` [diacerein, 4,5-bis (acetyloxy) 9,10-dihydro-4,5-dihydroxy-9,10-dioxo-2-anthracenecarboxylic acid], the “soft stool effect expected due to inherent pharmacokinetic property (enterohepatic circulation)” value in series [1] was 30-40%. Further, the solubility entry (in water, alcohols, acetone, dichloromethane and chloroform) is listed as “practically insoluble”.
As for `CC(=O)Oc1cccc2c1C(=O)c1c(OC(C)=O)cc(C(=O)O)cc1C2=O` [potassium salt of diacerein], for the setting “disclosed in EP 243,968”, the solubility in water result is given as “water-soluble”.
